Assay results taken from US20230274811A1, “METHODS OF MAKING PROSTATE CANCER TREATMENT DECISIONS” (Progenics Pharmaceuticals, Inc., priority 2020, published 2023).
Values joined by “and” are separate entries in the source; they are usually repeats but may differ in a detail not shown here. Equal values may be shown once. “Also recorded” adds a separate entry of the source.

What was measured:
[1] = system: PSMA-positive PC3 PIP tumor; assay: Uptake in mouse xenografts; type: in vivo; conditions: PSMA-positive PC3 PIP vs PSMA-negative PC3 flu tumors
[2] = system: pelvic lymph node metastases; assay: OSPREY Cohort A: 18F-DCFPyL PET/CT detection of pelvic lymph node metastases vs histopathology; type: in vivo, men; conditions: for NPV % (95% CI) / PPV % (95% CI) / Sensitivity % (95% CI) / Specificity % (95% CI): N=252
Source text: Histopathology served as the reference standard to which imaging findings were compared. FIG. 1 provides information regarding the study design and cohorts.
Imaging findings were compared to histopathology as the truth standard.
In OSPREY, 268 patients at high risk for pelvic lymph node metastasis who were planned for initial definitive therapy underwent PyLARIFY imaging. […] PyLARIFY and baseline conventional imaging reader interpretations were compared to pathologic staging of pelvic nodal metastases.

[3] = OSPREY safety (adverse events); type: in vivo, men
Protocol: The coprimary endpoints of sensitivity and specificity of ^18F-DCFPyL PET/CT for detecting pelvic lymph node metastases were evaluated in Cohort A. Secondary endpoints included safety in both cohorts, positive predictive value (PPV) and negative predictive value (NPV) in Cohort A, and sensitivity and PPV in Cohort B. Three central, blinded, and independent readers evaluated the ^18F-DCFPyL scans. Histopathology served as the reference standard to which imaging findings were compared. FIG. 1 provides information regarding the study design and cohorts.
Co-primary endpoints of specificity and sensitivity of ^18F-DCFPyL PET/CT for detecting prostate cancer metastases in pelvic lymph nodes were evaluated in Cohort A. Key secondary endpoints included incidence of adverse events, positive predictive value (PPV) and negative predictive value (NPV) of ^18F-DCFPyL PET/CT imaging to detect pelvic lymph node metastases in Cohort A, sensitivity and PPV of ^18F-DCFPyL PET/CT imaging to detect prostate cancer within sites of metastasis or recurrence in Cohort B. Three central, blinded, and independent readers evaluated the ^18F-DCFPyL scans. Imaging findings were compared to histopathology as the truth standard.
Pts underwent image-guided biopsy.

high-risk PCa = assay: OSPREY Cohort A sub-analysis: TNM staging by 18F-DCFPyL PET/CT at initial staging; type: in vivo; conditions: 252 men
Source text: Three central, blinded, and independent readers evaluated the ^18F-DCFPyL scans.

[4] = system: PCa recurrence or metastases; assay: OSPREY Cohort B sub-analysis: staging changes vs conventional imaging; type: in vivo, men
Protocol: Methods ^18F-DCFPyL-PET/CT was evaluated in 117 men with radiologic evidence of local recurrence or metastatic disease on baseline anatomical imaging (CT, MRI) or whole-body bone scintigraphy and in whom at least one lesion was deemed amenable to biopsy. […] Based on TNM staging: prostatic (T), pelvic LN (N), extra-pelvic LN (M1a), bone (M1b) and other visceral organs/soft tissue (M1c), ^18F-DCFPyL-PET/CT detection rates including lesion counts were systematically analyzed. Three central, blinded, and independent readers evaluated the ^18F-DCFPyL scans.

[5] = CONDOR safety (adverse events); type: in vivo, men
Source text: Pre- and post-treatment assessments also included vital signs and concomitant medications/procedures.

O=C(O)CC[C@H](NC(=O)N[C@@H](CCCCNC(=O)c1ccc([18F])nc1)C(=O)O)C(=O)O [18F-DCFPyL, 2-(3-{1-carboxy-5-[(6-[^18F]fluoro-pyridine-3-carbonyl)-amino]-pentyl}ureido)-pentanedioic acid]
uptake in mouse xenografts [1]: taken up only in PSMA-positive PC3 PIP tumor and not in PSMA-negative PC3 flu tumors | NPV, range among three readers ([2]; Cohort A, n=252 evaluable): 81.4-83.8% and 81-84% | PPV, range among three readers ([2]; Cohort A, n=252 evaluable): 78.1-90.5% and 78-91% | Sensitivity, range among three readers ([2]; Cohort A, n=252 evaluable): 30.6-41.9% and 31-42% | Specificity, range among three readers ([2]; Cohort A, n=252 evaluable): 96.3-98.9% and 96-99% | Sensitivity, range among three readers ([2]; Cohort A, restricted to median lymph node metastases >4 mm): 51.7-65.5% | NPV % (95% CI) ([2]; Reader 1): 84 (80, 89) % | PPV % (95% CI) ([2]; Reader 1): 87 (70, 95) % | Sensitivity % (95% CI) ([2]; Reader 1): 42 (30, 54) % | Specificity % (95% CI) ([2]; Reader 1): 98 (95, 99) % | NPV % (95% CI) ([2]; Reader 2): 81 (76, 86) % | PPV % (95% CI) ([2]; Reader 2): 91 (70, 99) % | Sensitivity % (95% CI) ([2]; Reader 2): 31 (19, 42) % | Specificity % (95% CI) ([2]; Reader 2): 99 (96, 100) % | NPV % (95% CI) ([2]; Reader 3): 83 (78, 87) % | PPV % (95% CI) ([2]; Reader 3): 78 (64, 93) % | Sensitivity % (95% CI) ([2]; Reader 3): 40 (28, 53) % | Specificity % (95% CI) ([2]; Reader 3): 96 (94, 99) % | drug-related serious adverse events ([3]; 385 men, both cohorts): No drug-related serious adverse events were observed | dysgeusia, drug-related AE incidence ([3]; 385 men, both cohorts): 2.1% | headache, drug-related AE incidence ([3]; 385 men, both cohorts): 2.1% | men with ≥1 drug-related adverse event ([3]; 385 men, both cohorts): 7.0% | severity of drug-related AEs (dysgeusia and generalized rash) ([3]; Cohort B): mild (Grade 1) | pts with ≥1 drug-related AE ([3]; Cohort B, 117 men): 1.7% | tolerability ([3]; OSPREY): generally well tolerated | patients upstaged to N1 or M1 disease (high-risk PCa): 22% | pts staged M1a (high-risk PCa): 0.4% | pts staged M1b (high-risk PCa): 9.1% | pts staged M1c (high-risk PCa): 1.2% | pts staged with M1 disease (high-risk PCa): 10.7% | pts staged with N1 disease (high-risk PCa; no known nodal/metastatic disease on standard imaging): 14.7% | up-staged pts with extra-pelvic biopsy confirmed M1 by pathology ([4]; 10/11): 91% | baseline M1 pts upstaged to a higher M1 sub-stage ([4]; 10/64): 16% | baseline M1 pts down-staged to M0 ([4]; 18/82): 22% | pts up-staged from M0 to M1 ([4]; 19/33 M0 at baseline by conventional imaging): 58% | patients experiencing AEs ([5]; 14 patients, 21 AEs): 6.7% | drug-related serious adverse event ([5]; 208 men): A single serious adverse event (AE) was reported as related to study drug (hypersensitivity); also recorded: hypersensitivity was the single drug-related Grade 3 AE | fatigue, AE incidence ([5]; 208 men): 1.0% | headache, AE incidence ([5]; 208 men): 1.9% | hypertension, AE incidence ([5]; 208 men): 1.0% | drug-related serious adverse event ([5]; 208 men, listed as PyL): one drug-related SAE (hypersensitivity) | tolerability ([5]; CONDOR): well tolerated | Grade 4 AEs, deaths, AEs leading to discontinuation ([5]; in vivo): There were no Grade 4 AEs, nor were there deaths or AEs that led to discontinuation of the study | changes in vital signs pre- to post-dosing ([5]; in vivo): No clinically relevant changes in vital signs were observed | patients with Grade 3, serious AEs (hypersensitivity, headache, paresthesia) ([5]; one patient): 0.5% | AEs in case studies 1-3 ([5]; single patients): No AEs were reported
